Assay results published in PubChem BioAssay (NCI).
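1) Cells in 96-well plates. 2) Compound, 48 h, 5 concentrations. 3) Linear interpolation between surrounding doses. 4) Unreached endpoint = highest concentration. TGI marks complete inhibition of growth.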

Tests used:
Assay in all cases: NCI-60 cell line screen, 48 h
[1] = system: 786-0 renal
[2] = system: A498 renal
[3] = system: A549 NSCLC
[4] = system: ACHN renal
[5] = system: BT-549 breast
[6] = system: CAKI-1 renal
[7] = system: CCRF-CEM leukemia
[8] = system: COLO 205 colon
[9] = system: DLD-1 colon
[10] = system: DMS 114 small cell lung
[11] = system: DMS 273 small cell lung
[12] = system: DU-145 prostate
[13] = system: EKVX NSCLC
[14] = system: HCC-2998 colon
[15] = system: HCT-116 colon
[16] = system: HCT-15 colon
[17] = system: HL-60(TB) leukemia
[18] = system: HOP-18 NSCLC
[19] = system: HOP-62 NSCLC
[20] = system: HOP-92 NSCLC
[21] = system: HS 578T breast
[22] = system: HT29 colon
[23] = system: IGROV1 ovarian
[24] = system: K-562 leukemia
[25] = system: KM12 colon
[26] = system: KM20L2 colon
[27] = system: LOX IMVI melanoma
[28] = system: LXFL 529 NSCLC
[29] = system: M14 melanoma
[30] = system: M19-MEL melanoma
[31] = system: MALME-3M melanoma
[32] = system: MCF7 breast
[33] = system: MDA-MB-231 breast
[34] = system: MDA-MB-435
[35] = system: MOLT-4 leukemia
[36] = system: NCI-H226 lung
[37] = system: NCI-H23 lung
[38] = system: NCI-H460 lung
[39] = system: NCI-H522 lung
[40] = system: NCI/ADR-RES ovarian
[41] = system: OVCAR-3 ovarian
[42] = system: OVCAR-4 ovarian
[43] = system: OVCAR-5 ovarian
[44] = system: OVCAR-8 ovarian
[45] = system: PC-3 prostate
[46] = system: RPMI-8226 leukemia
[47] = system: RXF 393 renal
[48] = system: SF-268 CNS
[49] = system: SF-295 CNS
[50] = system: SF-539 CNS
[51] = system: SK-MEL-2 melanoma
[52] = system: SK-MEL-28 melanoma
[53] = system: SK-MEL-5 melanoma
[54] = system: SK-OV-3 ovarian
[55] = system: SN12C renal
[56] = system: SNB-19 CNS
[57] = system: SNB-75 CNS
[58] = system: SNB-78 CNS
[59] = system: SR leukemia
[60] = system: SW-620 colon
[61] = system: T-47D breast
[62] = system: TK-10 renal
[63] = system: U251 CNS
[64] = system: UACC-257 melanoma
[65] = system: UACC-62 melanoma
[66] = system: UO-31 renal
[67] = system: XF 498 CNS

SMILES: NC(N)=NS(=O)(=O)c1ccc(NC(=O)c2cccc3c(=O)c4ccccc4[nH]c23)cc1
- TGI [1]: > 92.6 µM
- TGI [2]: > 100 µM
- TGI [3]: > 100 µM
- TGI [4]: > 100 µM
- TGI [5]: > 100 µM
- TGI [6]: > 100 µM
- TGI [7]: > 31.6 µM
- TGI [8]: > 100 µM
- TGI [9]: > 100 µM
- TGI [10]: > 100 µM
- TGI [11]: > 100 µM
- TGI [12]: > 100 µM
- TGI [13]: > 100 µM
- TGI [14]: > 100 µM
- TGI [15]: > 100 µM
- TGI [16]: > 100 µM
- TGI [17]: > 100 µM
- TGI [18]: > 100 µM
- TGI [19]: > 100 µM
- TGI [20]: > 96.2 µM
- TGI [21]: > 100 µM
- TGI [22]: > 100 µM
- TGI [23]: > 100 µM
- TGI [24]: > 56.2 µM
- TGI [25]: > 100 µM
- TGI [26]: > 100 µM
- TGI [27]: > 100 µM
- TGI [28]: > 100 µM
- TGI [29]: > 100 µM
- TGI [30]: > 100 µM
- TGI [31]: > 100 µM
- TGI [32]: > 100 µM
- TGI [33]: > 100 µM
- TGI [34]: > 100 µM
- TGI [35]: > 100 µM
- TGI [36]: > 100 µM
- TGI [37]: > 100 µM
- TGI [38]: > 100 µM
- TGI [39]: > 100 µM
- TGI [40]: > 100 µM
- TGI [41]: > 100 µM
- TGI [42]: > 100 µM
- TGI [43]: > 100 µM
- TGI [44]: > 100 µM
- TGI [45]: > 100 µM
- TGI [46]: > 100 µM
- TGI [47]: > 80.3 µM
- TGI [48]: > 100 µM
- TGI [49]: > 100 µM
- TGI [50]: > 100 µM
- TGI [51]: > 100 µM
- TGI [52]: > 100 µM
- TGI [53]: > 100 µM
- TGI [54]: > 91.9 µM
- TGI [55]: > 100 µM
- TGI [56]: > 100 µM
- TGI [57]: 51.3 µM
- TGI [58]: > 100 µM
- TGI [59]: > 100 µM
- TGI [60]: > 100 µM
- TGI [61]: > 100 µM
- TGI [62]: > 81.2 µM
- TGI [63]: 69.2 µM
- TGI [64]: > 100 µM
- TGI [65]: > 100 µM
- TGI [66]: > 100 µM
- TGI [67]: > 100 µM

SMILES: NC(CCC(=O)Nc1ccc(O)cc1)C(=O)O (stereo unspecified)
- TGI [1]: > 100 µM
- TGI [2]: > 100 µM
- TGI [3]: > 100 µM
- TGI [4]: > 100 µM
- TGI [6]: > 100 µM
- TGI [7]: > 100 µM
- TGI [8]: > 100 µM
- TGI [9]: > 100 µM
- TGI [10]: > 100 µM
- TGI [11]: > 100 µM
- TGI [13]: > 100 µM
- TGI [15]: > 100 µM
- TGI [16]: > 100 µM
- TGI [17]: > 100 µM
- TGI [18]: > 100 µM
- TGI [19]: > 100 µM
- TGI [20]: > 100 µM
- TGI [22]: > 100 µM
- TGI [24]: > 100 µM
- TGI [25]: > 100 µM
- TGI [26]: > 100 µM
- TGI [27]: > 100 µM
- TGI [28]: > 100 µM
- TGI [29]: > 100 µM
- TGI [31]: > 100 µM
- TGI [35]: > 100 µM
- TGI [36]: > 100 µM
- TGI [38]: > 100 µM
- TGI [39]: > 100 µM
- TGI [41]: > 100 µM
- TGI [42]: > 100 µM
- TGI [43]: > 100 µM
- TGI [44]: > 100 µM
- TGI [46]: > 100 µM
- TGI [47]: > 100 µM
- TGI [48]: > 100 µM
- TGI [51]: > 100 µM
- TGI [52]: > 100 µM
- TGI [53]: > 100 µM
- TGI [54]: > 100 µM
- TGI [55]: > 100 µM
- TGI [56]: > 100 µM
- TGI [57]: > 100 µM
- TGI [58]: > 100 µM
- TGI [59]: > 100 µM
- TGI [60]: > 100 µM
- TGI [62]: > 100 µM
- TGI [63]: > 100 µM
- TGI [64]: > 100 µM
- TGI [65]: > 100 µM
- TGI [66]: > 100 µM
- TGI [67]: > 100 µM

SMILES: CCCCCCc1cc2c(C)c(C)c(=O)oc2cc1OCCCOc1cc2oc(=O)c(C)c(C)c2cc1CCCCCC
- TGI [1]: > 100 µM
- TGI [2]: > 100 µM
- TGI [3]: > 100 µM
- TGI [6]: > 100 µM
- TGI [7]: > 100 µM
- TGI [9]: > 100 µM
- TGI [10]: > 100 µM
- TGI [11]: > 100 µM
- TGI [13]: > 100 µM
- TGI [15]: > 100 µM
- TGI [16]: > 100 µM
- TGI [17]: > 100 µM
- TGI [18]: > 100 µM
- TGI [19]: > 100 µM
- TGI [20]: > 100 µM
- TGI [22]: > 100 µM
- TGI [23]: > 100 µM
- TGI [24]: > 100 µM
- TGI [25]: > 100 µM
- TGI [26]: > 100 µM
- TGI [27]: > 100 µM
- TGI [28]: > 100 µM
- TGI [29]: > 100 µM
- TGI [30]: > 100 µM
- TGI [31]: > 100 µM
- TGI [35]: > 100 µM
- TGI [37]: > 100 µM
- TGI [38]: > 100 µM
- TGI [39]: > 100 µM
- TGI [41]: > 100 µM
- TGI [43]: > 100 µM
- TGI [44]: > 100 µM
- TGI [46]: > 100 µM
- TGI [47]: > 100 µM
- TGI [48]: > 100 µM
- TGI [49]: > 100 µM
- TGI [50]: > 100 µM
- TGI [51]: > 100 µM
- TGI [52]: > 100 µM
- TGI [53]: > 100 µM
- TGI [54]: > 100 µM
- TGI [56]: > 100 µM
- TGI [58]: > 100 µM
- TGI [59]: > 100 µM
- TGI [60]: > 100 µM
- TGI [62]: > 100 µM
- TGI [63]: > 100 µM
- TGI [64]: > 100 µM
- TGI [65]: > 100 µM
- TGI [66]: > 100 µM
- TGI [67]: > 100 µM

SMILES: COC(c1ccccc1)C(c1ccccc1)N1CCOCC1 (stereo unspecified)
- TGI [1]: > 100 µM
- TGI [2]: > 100 µM
- TGI [3]: > 100 µM
- TGI [4]: > 100 µM
- TGI [6]: > 100 µM
- TGI [7]: > 100 µM
- TGI [8]: > 100 µM
- TGI [9]: > 100 µM
- TGI [10]: > 100 µM
- TGI [11]: > 100 µM
- TGI [13]: > 100 µM
- TGI [14]: > 100 µM
- TGI [15]: > 100 µM
- TGI [17]: > 100 µM
- TGI [18]: > 100 µM
- TGI [19]: > 100 µM
- TGI [20]: > 100 µM
- TGI [22]: > 100 µM
- TGI [23]: > 100 µM
- TGI [24]: > 100 µM
- TGI [25]: > 100 µM
- TGI [26]: > 100 µM
- TGI [27]: > 100 µM
- TGI [28]: > 100 µM
- TGI [29]: > 100 µM
- TGI [30]: > 100 µM
- TGI [31]: > 100 µM
- TGI [35]: > 100 µM
- TGI [36]: > 100 µM
- TGI [37]: > 100 µM
- TGI [38]: > 100 µM
- TGI [39]: > 100 µM
- TGI [41]: > 100 µM
- TGI [42]: > 100 µM
- TGI [43]: > 100 µM
- TGI [44]: > 100 µM
- TGI [46]: > 100 µM
- TGI [47]: > 100 µM
- TGI [48]: > 100 µM
- TGI [49]: > 100 µM
- TGI [50]: > 100 µM
- TGI [51]: > 100 µM
- TGI [52]: > 100 µM
- TGI [53]: > 100 µM
- TGI [54]: > 100 µM
- TGI [55]: > 100 µM
- TGI [56]: > 100 µM
- TGI [57]: > 100 µM
- TGI [58]: > 100 µM
- TGI [60]: > 100 µM
- TGI [62]: > 100 µM
- TGI [63]: > 100 µM
- TGI [64]: > 100 µM
- TGI [65]: > 100 µM
- TGI [66]: > 100 µM
- TGI [67]: > 100 µM
